Experimental findings from PMC7991022, “Optimization of extracellular ethanol-tolerant β-glucosidase production from a newly isolated Aspergillus sp. DHE7 via solid state fermentation using jojoba meal as substrate: purification and biochemical characterization for biofuel preparation” (Journal of Genetic Engineering & Biotechnology, 2021) are described below.

The test system of the assay is T1, Aspergillus sp. DHE7 β-glucosidase.
T1 construct: gene beta-D-glucosidase; native extracellular enzyme purified from solid-state culture (jojoba meal): ethanol precipitation, DEAE-Sephadex A-50, Sephadex G-100; monomer, 135 kDa by SDS-PAGE
Description: p-nitrophenol release at […] nm, Lineweaver-Burk plot. It counts as biochemical. The conditions noted are these: pH 6.0, 60 °C, 50 mM Na-citrate; 0.25 to 20 mM substrate; apparent Km.

Take `O=[N+]([O-])c1ccc(O[C@@H]2O[C@H](CO)[C@@H](O)[C@H](O)[C@H]2O)cc1` [p-nitrophenyl-β-D-glucopyranoside]: the Km stood at 400 µM.
